Experimental data as given in publication PMC7238976 (Phytochemistry, 2020).
pIC50: −log10 of the molar value. Where two headings read alike, the source gives them in different places.

Assays:
HIV = settings: read-out: Anti-HIV IC50 (literature); ref Olivon, et al., 2017; cited from earlier work
HL4–3 virus = test: Anti-HIV-1 activity against HL4–3 virus in MT4 cells; assay type: cell-based
[1] = Cytotoxicity toward MT4 cells; assay type: cell-based; settings: human
MT4 cells = test: Cytotoxicity toward MT4 cells; assay type: cell-based; settings: read-out: Cytotoxicity CC50, means, n = 3
[2] = read-out: Anti-HIV-1 IC50, HL4–3 virus in MT4 cells, means, n = 3

Row | Molecule | pIC50 (HL4–3 virus; [2]) | CC50 (MT4 cells) | also measured
1 | CCCCCCCCCCCCCCCC(=O)O[C@@]12C[C@@H](C)[C@@]3(O)[C@H]([C@@H]1C2(C)C)[C@H](O)[C@](O)(CO)[C@@H](O)[C@]1(O)C(=O)C(C)=C[C@H]13 [12-deoxy-5β-6β-7α-trihydroxy-phorbol-13-hexadecanoate] | – | – | pIC50 (HIV): 6.59
2 | CCCCCCCCCCCCCCCC(=O)O[C@@]12C[C@@H](C)[C@]3(O)[C@@H]4C=C(C)C(=O)[C@@]4(O)[C@H](O)C(CO)=C[C@H]3[C@@H]1C2(C)C [12-deoxy-5β-hydroxy-phorbol-13-hexadecanoate] | – | – | pIC50 (HIV): 8.70
3 | Cc1cn([C@H]2C[C@H](N=[N+]=[N-])[C@@H](CO)O2)c(=O)[nH]c1=O [AZT, zidovudine, reference compound] | – | – | pIC50 (HL4–3 virus; Human immunodeficiency virus 1, MT4, read-out: Anti-HIV-1 IC50): 7.73; Selectivity index SI (HL4–3 virus; ratio of CC50 and anti-HIV IC50): > 20; CC50 [1]: > 0.37 µM
4 | CCCCCCCCCCCCCCCC(=O)O[C@@]12C[C@@H](C)[C@@]3(O)[C@@H](C=C(CO)C[C@]4(O)C(=O)C(C)=C[C@@H]34)[C@@H]1C2(C)C [Compound 7, 12-deoxyphorbol-13-hexadecanoate] | 8.64 | > 1.7 µM | –
5 | CCCCCCCCCCCCCC(=O)O[C@@]12C[C@@H](C)[C@@]3(O)[C@@H](C=C(CO)C[C@]4(O)C(=O)C(C)=C[C@@H]34)[C@@H]1C2(C)C [Compound 8, 12-deoxyphorbol-13-myristate] | 7.66 | > 1.8 µM | –
6 | Crotignoid L [Compound 1] | 6.66 | > 1.8 µM | –
7 | Crotignoid M [Compound 2] | 7.42 | > 1.7 µM | –
8 | Crotignoid N [Compound 3] | 6.51 | > 1.6 µM | –
9 | Crotignoid O [Compound 4] | 5.39 | > 1.8 µM | –
10 | Crotignoid P [Compound 5] | 7.00 | > 1.6 µM | –
11 | Crotignoid Q [Compound 6] | < 5.72 | > 1.9 µM | Anti-HIV activity (in words) (HL4–3 virus; HL4–3 virus in MT4 cells): did not show anti-HIV activity
